Source: patent US20260157950A1, “Compounds and Cosmetic, Dermocosmetic, Cosmeceutical or Pharmaceutical Compositions for Relaxing Muscles, Including the Skeletal Muscles of the Face, for Anti-Aging Cosmetic Action, for Reducing and/or Smoothing Expression Lines and Wrinkles and/or for Antiperspirant Action, Uses and Methods” (Chemyunion Ltda, priority 2022, published 2026)
Ends that are not written are not given here. * marks the point of attachment. Palmitoyl = CCCCCCCCCCCCCCCC(=O)*

Test system: nasolabial and glabellar wrinkles
Experiment: Assessment of clinical efficacy: topical facial treatment for 28 days, wrinkle evaluation with Bio3D Structured-light Scanner
Type: in vivo, human
Conditions: Day 28 vs Day 0, topical formulation containing peptide at 500 ppm, 10 volunteers per group
Method: Two groups of 10 volunteers underwent 28 days of topical treatment with the peptides SEQ NO ID 1 (Pro-Trp-Lys-Trp) or SEQ NO ID 2 (Pal-Pro-Thr-Lys-Trp) in the facial region. Nasolabial and glabellar lines were evaluated on Day 0 (before) and Day 28 (after 4 weeks of treatment) using Bio3D Structured-light Scanner. For wrinkle evaluation, images of the different areas were taken and processed through specific software. Three parameters (total area, length and depth of wrinkles) were obtained for each of the areas in each of the volunteers.

Substance | Decreased wrinkle intensity (D 28/D 0): Wrinkle area [%] | Decreased wrinkle intensity (D 28/D 0): Wrinkle depth [%] | Decreased wrinkle intensity (D 28/D 0): Wrinkle length [%]
Pro-Trp-Lys-Trp (PWKW) [SEQ NO ID 1] | −10.92 | −9.23 | −14.97
Pal-Pro-Thr-Lys-Trp (Palmitoyl-PTKW) [SEQ NO ID 2, N-palmitoylated peptide] | −7.81 | −6.59 | −11.76
